Source: PubChem BioAssay AID1259407 (Chemical Carcinogenesis Research Information System (CCRIS), 2018)
Activity calls are given as the source filed them. No rule for the calls is given here.

Tested on: CCRIS mutagenicity, Ames/micronucleus/aberration tests
Test: CCRIS mutagenicity studies
[1] = Test System: AMES SALMONELLA TYPHIMURIUM, Strain/Indicator: TA98, Metabolic Activation: NONE, Method: STANDARD PLATE
[2] = Test System: AMES SALMONELLA TYPHIMURIUM, Strain/Indicator: TA100, Metabolic Activation: NONE, Method: STANDARD PLATE

Measured: mutagenic call

Nc1ccccc1N
active: End Point: IN VITRO CHROMOSOMAL ABERRATIONS, Test System: CHINESE HAMSTER LUNG CELLS (CHL), Metabolic Activation: NONE active; positive (structural changes) | End Point: IN VITRO CHROMOSOMAL ABERRATIONS, Test System: CHINESE HAMSTER OVARY CELLS (CHO), Metabolic Activation: NONE active; positive (structural changes) | End Point: IN VITRO CHROMOSOMAL ABERRATIONS, Test System: CHINESE HAMSTER OVARY CELLS (CHO), Metabolic Activation: RAT, LIVER, S-9, AROCLOR 1254 active; positive (structural changes) | End Point: IN VITRO CHROMOSOMAL ABERRATIONS, Test System: CHL CELLS, Metabolic Activation: NONE active; positive (structural changes) | End Point: IN VITRO CHROMOSOMAL ABERRATIONS, Test System: CHL CELLS, Metabolic Activation: RAT, LIVER, S-9, SODIUM PHENOBARBITAL AND 5,6-BENZOFLAVONE active; positive (structural changes) | Test System: AMES SALMONELLA TYPHIMURIUM, Strain/Indicator: TA97, Metabolic Activation: HAMSTER, LIVER, S-9, AROCLOR 1254 (10%), Method: PREINCUBATION active; positive | Test System: AMES SALMONELLA TYPHIMURIUM, Strain/Indicator: TA97, Metabolic Activation: RAT, LIVER, S-9, AROCLOR 1254 (10%), Method: PREINCUBATION active; positive | Test System: AMES SALMONELLA TYPHIMURIUM, Strain/Indicator: TA98(NR), Metabolic Activation: RAT, LIVER, S-9, AROCLOR 1254, Method: PREINCUBATION active; positive | Test System: AMES SALMONELLA TYPHIMURIUM, Strain/Indicator: TA98, Metabolic Activation: HAMSTER, LIVER, S-9, AROCLOR 1254 (10%), Method: PREINCUBATION active; positive | Test System: AMES SALMONELLA TYPHIMURIUM, Strain/Indicator: TA98, Metabolic Activation: PEA APICAL BUD S-9, Method: PREINCUBATION active; positive | Test System: AMES SALMONELLA TYPHIMURIUM, Strain/Indicator: TA98, Metabolic Activation: PEA APICAL BUD S-9, Method: STANDARD PLATE active; positive | Test System: AMES SALMONELLA TYPHIMURIUM, Strain/Indicator: TA98, Metabolic Activation: RAT LIVER S-9, PHENOBARBITAL AND BETA-NAPHTHOFLAVONE, Method: PREINCUBATION active; positive | Test System: AMES SALMONELLA TYPHIMURIUM, Strain/Indicator: TA98, Metabolic Activation: RAT, LIVER, S-9, AROCLOR 1254 (10%), Method: PREINCUBATION active; positive | Test System: AMES SALMONELLA TYPHIMURIUM, Strain/Indicator: TA98, Metabolic Activation: RAT, LIVER, S-9, AROCLOR 1254, Method: PREINCUBATION active; positive | Test System: AMES SALMONELLA TYPHIMURIUM, Strain/Indicator: TA98, Metabolic Activation: RAT, LIVER, S-9, AROCLOR 1254, Method: STANDARD PLATE active; positive | Test System: AMES SALMONELLA TYPHIMURIUM, Strain/Indicator: TA98, Metabolic Activation: RAT, LIVER, S-9, PCB, Method: PREINCUBATION active; positive | Test System: AMES SALMONELLA TYPHIMURIUM, Strain/Indicator: TA100(NR), Metabolic Activation: RAT, LIVER, S-9, AROCLOR 1254, Method: PREINCUBATION active; positive | Test System: AMES SALMONELLA TYPHIMURIUM, Strain/Indicator: TA100, Metabolic Activation: HAMSTER, LIVER, S-9, AROCLOR 1254 (10%), Method: PREINCUBATION active; positive | Test System: AMES SALMONELLA TYPHIMURIUM, Strain/Indicator: TA100, Metabolic Activation: PEA APICAL BUD S-9, Method: PREINCUBATION active; positive | Test System: AMES SALMONELLA TYPHIMURIUM, Strain/Indicator: TA100, Metabolic Activation: PEA APICAL BUD S-9, Method: STANDARD PLATE active; positive | Test System: AMES SALMONELLA TYPHIMURIUM, Strain/Indicator: TA100, Metabolic Activation: RAT LIVER S-9, PHENOBARBITAL AND BETA-NAPHTHOFLAVONE, Method: PREINCUBATION active; positive | Test System: AMES SALMONELLA TYPHIMURIUM, Strain/Indicator: TA100, Metabolic Activation: RAT, LIVER, S-9, AROCLOR 1254 (10%), Method: PREINCUBATION active; positive | Test System: AMES SALMONELLA TYPHIMURIUM, Strain/Indicator: TA100, Metabolic Activation: RAT, LIVER, S-9, PCB, Method: PREINCUBATION active; positive | Test System: AMES SALMONELLA TYPHIMURIUM, Strain/Indicator: TA1537, Metabolic Activation: RAT LIVER S-9, PHENOBARBITAL AND BETA-NAPHTHOFLAVONE, Method: PREINCUBATION active; positive | Test System: AMES SALMONELLA TYPHIMURIUM, Strain/Indicator: TA1538, Metabolic Activation: RAT, LIVER, S-9, AROCLOR 1254, Method: STANDARD PLATE active; positive | Test System: AMES SALMONELLA TYPHIMURIUM, Strain/Indicator: TA1538, Metabolic Activation: RAT, LIVER, S-9, PHENOBARBITAL, Method: STANDARD PLATE active; positive
inactive: End Point: IN VITRO CHROMOSOMAL ABERRATIONS, Test System: CHINESE HAMSTER LUNG CELLS (CHL), Metabolic Activation: RAT, LIVER, S-9, KC-400 inactive; negative | Test System: AMES SALMONELLA TYPHIMURIUM, Strain/Indicator: TA97, Metabolic Activation: NONE, Method: PREINCUBATION inactive; negative | Test System: AMES SALMONELLA TYPHIMURIUM, Strain/Indicator: TA98(NR), Metabolic Activation: NONE, Method: PREINCUBATION inactive; negative | [1] inactive; negative | Test System: AMES SALMONELLA TYPHIMURIUM, Strain/Indicator: TA98, Metabolic Activation: PLANT (PERSEA AMERICANA) S-117, Method: STANDARD PLATE inactive; negative | Test System: AMES SALMONELLA TYPHIMURIUM, Strain/Indicator: TA98, Metabolic Activation: PLANT (ZEA MAYS) S-9, Method: STANDARD PLATE inactive; negative | Test System: AMES SALMONELLA TYPHIMURIUM, Strain/Indicator: TA100(NR), Metabolic Activation: NONE, Method: PREINCUBATION inactive; negative | [2] inactive; negative | Test System: AMES SALMONELLA TYPHIMURIUM, Strain/Indicator: TA100, Metabolic Activation: PLANT (PERSEA AMERICANA) S-117, Method: STANDARD PLATE inactive; negative | Test System: AMES SALMONELLA TYPHIMURIUM, Strain/Indicator: TA100, Metabolic Activation: PLANT (ZEA MAYS) S-9, Method: STANDARD PLATE inactive; negative | Test System: AMES SALMONELLA TYPHIMURIUM, Strain/Indicator: TA1535, Metabolic Activation: HAMSTER, LIVER, S-9, AROCLOR 1254 (10%), Method: PREINCUBATION inactive; negative | Test System: AMES SALMONELLA TYPHIMURIUM, Strain/Indicator: TA1535, Metabolic Activation: NONE, Method: PREINCUBATION inactive; negative | Test System: AMES SALMONELLA TYPHIMURIUM, Strain/Indicator: TA1535, Metabolic Activation: RAT LIVER S-9, PHENOBARBITAL AND BETA-NAPHTHOFLAVONE, Method: PREINCUBATION inactive; negative | Test System: AMES SALMONELLA TYPHIMURIUM, Strain/Indicator: TA1535, Metabolic Activation: RAT, LIVER, S-9, AROCLOR 1254 (10%), Method: PREINCUBATION inactive; negative | Test System: AMES SALMONELLA TYPHIMURIUM, Strain/Indicator: TA1537, Metabolic Activation: NONE, Method: PREINCUBATION inactive; negative | Test System: AMES SALMONELLA TYPHIMURIUM, Strain/Indicator: YG1024, Metabolic Activation: PLANT (PERSEA AMERICANA) S-117, Method: STANDARD PLATE inactive; negative | Test System: AMES SALMONELLA TYPHIMURIUM, Strain/Indicator: YG1024, Metabolic Activation: PLANT (ZEA MAYS) S-9, Method: STANDARD PLATE inactive; negative | Test System: AMES SALMONELLA TYPHIMURIUM, Strain/Indicator: YG1029, Metabolic Activation: PLANT (PERSEA AMERICANA) S-117, Method: STANDARD PLATE inactive; negative | Test System: AMES SALMONELLA TYPHIMURIUM, Strain/Indicator: YG1029, Metabolic Activation: PLANT (ZEA MAYS) S-9, Method: STANDARD PLATE inactive; negative | Test System: E.COLI, Strain/Indicator: WP2UVRA, Metabolic Activation: NONE, Method: PREINCUBATION inactive; negative

C=CCNc1ccccc1.C=CCNc1ccccc1.C=CCNc1ccccc1.[Cl-].[Cl-].[Rh].[Rh]
inactive: Test System: AMES SALMONELLA TYPHIMURIUM, Strain/Indicator: TA92, Metabolic Activation: NONE, Method: STANDARD PLATE inactive; negative

CCN(N=O)C(=O)Nc1ccccc1
active: End Point: IN VITRO CHROMOSOMAL ABERRATIONS, Test System: CHINESE HAMSTER V79-E CELLS, Metabolic Activation: NONE active; positive (structural changes)

O=C(Nc1ccc(Br)cc1)c1csc([N+](=O)[O-])c1
active: [1] active; positive | [2] active; positive

c1ccc2c(c1)ccc1c2ccc2c3ccccc3ccc21
active: Test System: AMES SALMONELLA TYPHIMURIUM, Strain/Indicator: TA100, Metabolic Activation: MOUSE, LIVER, S-10, AROCLOR 1254 active; positive
